From paper PMC5067331, “Large Gliadin Peptides Detected in the Pancreas of NOD and Healthy Mice following Oral Administration” (Journal of Diabetes Research, 2016)
Entries after “also recorded” stand apart in the source; their conditions may differ. Like-named read-outs stand apart in the source and are kept apart here. Ends that are not written are not given here.

What was measured:
[1] = MALDI-TOF MS of 33-mer fragments in plasma and pancreas after oral administration; conditions: for Sample in which the 33-mer fragment was found: mice 6–20 weeks, 500–900 μg 33-mer p.o., plasma and pancreas 45–60 min after administration, sequence assigned by mass match
Experimental: Plasma was fractionated in Amicon Ultra 10 kDa centrifugal filter units (Merck Millipore), Vivaspin 500, 5 kDa filter units (Sartorius), PD10 columns, Amicon Ultra 0.5 mL 10 kDa centrifugal filters, or SEP-PAK C18 Plus short cartridges (Waters), or they were ethanol-precipitated or acid-ethanol extracted. Slices from nonfixed gels were extracted overnight at 37°C in 100 μL of 50 mM NH4CO3 with or without 12.5 ng/μL Endoproteinase Glu-C Sequencing Grade (Roche Diagnostics). The gel slices were further extracted on a shaker for 15 min in 20 μL extraction buffer (1 : 2 (vol/vol) 50 mM NH4HCO3/acetonitrile). The extracts were combined.
Samples were dried in a vacuum concentrator (Eppendorf 5301) and reconstituted in 20 μL 5% acetic acid before desalting using POROS C18 matrix and elution onto a stainless steel 96-well MALDI target plate with 1 μL α-cyano-4-hydroxycinnamic acid (HCCA matrix) ready-made from Agilent (6 mg/mL in 30% acetonitrile, 30% methanol, and 0.1% TFA) for dried droplet crystallization. Analysis was done on Bruker Ultraflex with Daltonics flexAnalysis software, externally calibrated using a standard peptide mixture (Bruker, range: 1,000–3,200 Da). Spectra were recorded in positive linear mode and summed from 100 laser shots.
The MS mass of 84 fragments >800 Da was calculated. They were randomly generated from the 33-mer sequence, allowing for deamidation of up to two glutamine residues (only one deamidation for Mr <1500 Da) and for sodium and potassium ion adduct formation. Measured masses were matched to the predicted masses, using a difference of <0.5 Da as threshold. Masses from negative control samples were matched using a threshold of 1.0 and removed.

[2] = MALDI-TOF MS of fragments formed in vitro during incubation of 33-mer in mouse plasma; type: in vitro ADME; conditions: 33-mer in mouse plasma at 37°C, 5 kDa MWCO filtrate or SDS-PAGE gel slice, sequence assigned by mass match
From the text: The extracts were combined.

digestive proteases = conditions: cited from earlier work
[3] = mouse, in vivo, po
Experimental: (§2) For initial evaluation of accumulation and elimination in blood, NOD mice (6–8 weeks) received 230–900 μCi ^3H-33-mer or ^3H-19-mer. […] Organs were incubated with SOLVABLE (Perkin-Elmer) at 55°C until dissolved and then with 30% hydrogen peroxide to decolorize the solution. Ultima Gold (Perkin Elmer) was added, and samples were counted 1 h later in a Packard 1600TR scintillation counter.
(§3) Specific activities (dpm/mg tissue) were calculated by dividing the counts by the respective weight of the sample that was measured. The tissue distribution was examined using the tissue/blood ratios. To compare responses in blood across different doses (230–900 μCi), data were normalized to a dosage of 100 μCi.
(§4) Before oral gavage, mice were starved for 4 h and were not fed until 20 min after.
(§5) One-way ANOVA with Tukey posttest was carried out using GraphPad Prism version 5.00 for Windows (GraphPad Software, San Diego, California, USA) to analyze the distribution of the label at each time point. The stomach and intestine were excluded from the analysis due to their large variation.

[4] = Biodistribution of 3H label after oral administration (scintillation counting, tissue/blood ratio); conditions: NOD mice, shortly after administration (Figure 1(a)), 0.01 < p < 0.05, N = 2–4 mice
Experimental: as §2, §3, §4, §5

[5] = SDS-PAGE and fluorography of blood after i.v. or p.o. administration; conditions: mice, data not shown
[6] = mouse, in vivo
Experimental: Heparin-plasma was prepared from tail blood at 0°C and analysed by SDS-PAGE without further processing, after depletion of albumin and IgG using a commercial kit (Protea Biosciences) or after digestion with trypsin (incubation with 125 mM dithiothreitol, 0.05% SDS at 53°C, pH 7.5 for 45 min, followed by digestion with trypsin (Fluka) at 37°C). The gel was fixed in 15% formalin/25% ethanol and Coomassie-stained. For fluorography, the fixed gels were soaked in 7% glycerol and Amplify Fluorographic Reagent (GE Healthcare), each for 30 min, dried, and exposed on Amersham Hyperfilm MP at −80°C. Subsequently, the dried gels were rehydrated in 7% acetic acid for 2–4 h and Coomassie-stained.
For scintillation counting, gel slices were excised from the nonfixed gel, covered with 600 μL of 30% hydrogen peroxide, and heated at 50°C overnight before measurement.
For kinetics studies, using SDS-PAGE and fluorography, 230 μCi ^3H-33-mer or 770 μCi of ^3H-19-mer was used for i.v. administration and 620–1200 μCi ^3H-33-mer was used for oral administration to NOD mice aged 6–8 weeks.
Blood and organs were sampled after 1, 24 and 72 h. […] Kinetics of 3H-33-mer and 3H-19-mer in mouse blood following i.v. and p.o. administration. 3H-33-mer (A) or 3H-19-mer (B) was given i.v. to NOD mice (6-8 weeks). Tail blood was analyzed by SDS-PAGE and fluorography at the indicated time points (min). CT: control 33-mer/19-mer. In (A, right), 660 µg of unlabeled 33-mer was injected prior to the labeled peptide. (C) 3H-33-mer was administered p.o. to NOD mice (6-8 weeks). Blood was analyzed after 0.5, 1 and 20 h. All lanes were loaded with the same amount of radioactivity. CT is control 33-mer. (D) Fluorogram of in vitro incubation of blood plasma from a C57BL/6 mouse with 33-mer (28.6 ng/µl or 222.000 dpm/µl) for 0-4 h. CT is control 33-mer. (E) Plasma from mice, that had received 3H-labelled 33-mer one hour earlier by i.v. or p.o. administration, was depleted of albumin and IgG. […] Data were normalized between lanes to contain identical amounts of radioactivity outside the albumin/IgG region. […]

albumin and IgG = assay: Depletion of albumin and IgG from plasma, radioactivity in gel slices; type: in vivo, mouse
From the text: (§1) Supplementary file 2424306.f1.docx: Fig Supp 1. […] Abbreviations are as in Fig 1.Fig Supp 2. […] CT: control 33-mer/19-mer. […] CT is control 33-mer. […] CT is control 33-mer.

trypsin = assay: Trypsin digestion of plasma/serum followed by SDS-PAGE and fluorography; type: in vitro ADME; conditions: serum; dithiothreitol/SDS at 53°C pH 7.5 45 min, then trypsin at 37°C
From the text: as §1

[7] = mouse, in vivo; remark: listed apart in the source
Experimental: (§6) Standard tissue sections were dipped in a 1 : 1 dilution in water of melted Kodak NTB Emulsion with 10% Amplify Fluorographic Reagent (GE Healthcare), air-dried, stored in the dark at 4°C with desiccant for 1–3 weeks, developed in Kodak D19 developer, fixed in Ilford Rapid Fixer, HE stained, and examined in an Olympus Bx51 microscope (UPlanSApo 20x, 0.40) equipped with a Colorview 1 camera and Analysis getIT software (Olympus).

[8] = Autoradiography of mouse tissues; conditions: 1 h after oral administration
Experimental: as §6

[9] = LC-MS detection of 33-mer in plasma; type: in vivo, BALB/c mice; conditions: BALB/c, methanol-TFA precipitation
Experimental: BALB/c mice, 4–16 weeks of age, were given 650–900 μg of 33-mer, either i.v. or p.o., and heparin-plasma was prepared 15–60 min later at 0°C. Protein inhibitors were added to the tissues that were homogenized, mixed with internal standard (GENESEQP:AZF58701), and precipitated with 50% methanol, 1% TFA, and centrifugation. The samples were analyzed using an Orbitrap XL (Thermo Scientific) equipped with a Nano LC (Easy nLC II, Thermo Scientific). The chromatographic system was a 10 cm, ID 75 μm, 3 μm C18-A2 column (Thermo Scientific) with a flow of 300 nL/min with 0.1% formic acid as mobile phase A and 0.1% formic acid in acetonitrile as B. The MS scan was performed using a resolution of 30000 and a scan range of 300–2000 m/z.

[10] = In vitro incubation of 33-mer in blood plasma, SDS-PAGE and fluorography; type: in vitro ADME, C57BL/6 mouse; conditions: C57BL/6 plasma with 33-mer 28.6 ng/µl, 0-4 h
From the text: as §1

| Sample in which the 33-mer fragment was found [1] | Compound | Sample (filtrate or gel slice range) in which the fragment was found [2] | other results |
| --- | --- | --- | --- |
| Pancreas, C57BL/6 | LQLQPFPQPE |  |  |
| Pancreas C57BL/6 | QPFPQPELPY | Filtrate |  |
| Plasma, NOD | ELPYPQPQPF |  |  |
| Plasma, C57BL/6 | FPQPELPY |  |  |
| Plasma, C57BL/6 | LQLQPFPQPELPYPQPELPYPQPELPYPQPQP | 4–6 kDa | Stability as originally described (digestive proteases): stable |
| Plasma, NOD pancreas, C57BL/6 | ELPYPQPELP |  |  |
| Plasma, NOD | QPFPQPELP |  |  |
| Plasma, NOD | YPQPQPF | Filtrate |  |
| Plasma, NOD pancreas, NOD | ELPYPQPELPYP |  |  |
| Plasma, NOD | ELPYPQPELPYPQ |  |  |
| Pancreas, C57BL/6 | QLQPFPQPEL |  |  |
| Plasma, NOD | QLQPFPQPELP |  |  |

More lines, now with the values behind:

| Compound | Sample in which the 33-mer fragment was found [1] | Sample (filtrate or gel slice range) in which the fragment was found [2] | other results |
| --- | --- | --- | --- |
| QPFPQPELPYPQPELPYPQPELPYPQPQ | Plasma, NOD, C57BL/6 |  |  |
| YPQPELPYPQPQPF | Plasma, NOD, C57BL/6 | Filtrate |  |
| H-LGQQQPFPPQQPYPQPQPF-OHY [19-mer] |  |  | Resistance to digestive proteases (digestive proteases): resistant to digestive proteases; Absorption from the intestine [3]: readily absorbed from the intestine; Level of label in the pancreas relative to blood [3]: high level of label; Presence of label at early time points [3]: present 1/2 h after administration and still remained 3 hours after oral administration |
| LQLQPFPQPELPYPQPELPYPQPELPYPQP [33-mer fragment formed in mouse plasma in vitro, MALDI-TOF MS mass match] |  | 14–18 kDa |  |
| LPYPQPELPYPQPQPF | Pancreas, NOD, C57BL/6 |  |  |
| N[C@@H](Cc1ccc(O)cc1)C(=O)O [3H-tyrosine, tyrosine] |  |  | Level of label in the pancreas relative to blood [4]: accumulated similarly to the 33- and 19-mer; HMW band after injection [5]: appearance of the HMW band |
| LQLQPFPQPELPYPQPELPYPQPELPYP | Plasma, NOD, C57BL/6 |  |  |
| QPFPQPELPYPQPELPYPQPELPYPQPQPF [33-mer fragment formed in mouse plasma in vitro, MALDI-TOF MS mass match] |  | 14–18 kDa |  |
| FPQPELPYPQPELPYPQPELPYPQPQPF [33-mer fragment formed in mouse plasma in vitro, MALDI-TOF MS mass match] |  | 10–12 kDa |  |
| ELPYPQPELPYPQPELPY [33-mer fragment formed in mouse plasma in vitro, MALDI-TOF MS mass match] |  | Filtrate |  |
| LQPFPQPELPYPQPELPYPQPELPYPQPQ | Plasma, NOD, C57BL/6 |  |  |
| QPFPQPELPYPQPELPYPQPELPYPQPQP | Plasma, NOD, C57BL/6 |  |  |
| ELPYPQPELPYPQPEL [33-mer fragment formed in mouse plasma in vitro, MALDI-TOF MS mass match] |  | Filtrate |  |
| PFPQPELPYPQPELPYPQPELPYPQPQPF [33-mer fragment formed in mouse plasma in vitro, MALDI-TOF MS mass match] |  | 10–12 kDa |  |
| LQLQPFPQPELPYPQPE | Plasma, NOD | 4–6 kDa |  |
| H-LQLQPFPQPELPYPQPELPYPQPELPYPQPQPF-OHY [33-mer] |  | 4–6 kDa, 6–9 kDa, 14–17 kDa | Resistance to digestive proteases (digestive proteases): resistant to digestive proteases; Emergence of higher molecular weight species (HMW) in blood after injection ([6]; iv): After 1 h, higher molecular weight species (HMW) emerged; 33-mer signal in blood after oral administration ([6]; po): still present in the blood, although in low amounts; Label removed by depletion of albumin and IgG (albumin and IgG; 3H-33-mer added to blood in vitro, or cold peptide injected prior to labeled peptide): 14-15%; Label removed by depletion of albumin and IgG (albumin and IgG; blood of mice that had received 33-mer, regardless of route, plasma 1 h after administration): 35%; Degradation by trypsin (trypsin): degrades albumin, but not 33-mer; Difference between i.v. and p.o. administration in autoradiography [7]: No difference was seen; Absorption from the intestine [3]: readily absorbed from the intestine; Level of label in the pancreas relative to blood [3]: high level of label; Presence of label at early time points [3]: present 1/2 h after administration and still remained 3 hours after oral administration; Label in zymogen granules of the pancreas [8]: high accumulation of label; Label in all other tissues examined ([8]; lung, kidney, ileum): homogenous labeling was observed; Intact peptide in plasma after oral administration ([9]; 650 µg p.o., 60 min): detected intact peptide; also recorded: close to the detection limit, and the peptide was not detected in all mice; Intact peptide in plasma after intravenous administration ([9]; 850 µg i.v., 15, 30 and 60 min): detected intact peptide; Formation of 12 kDa and HMW signals in vitro [10]: the 12 kDa signal, but not the HMW signal, also formed in vitro; Longest peptide detected in blood ([1]; after oral 33-mer): 32-mer |
| LQLQPFPQPELPYPQPELPYPQPELPYPQPQ [33-mer fragment formed in mouse plasma in vitro, MALDI-TOF MS mass match] |  | 14–17 kDa |  |
| QLQPFPQPELPYPQPELPYPQPELPYPQPQP [33-mer fragment formed in mouse plasma in vitro, MALDI-TOF MS mass match] |  | 14–17 kDa |  |
| ELPYPQPELPYPQPELPYPQPQPF [33-mer fragment formed in mouse plasma in vitro, MALDI-TOF MS mass match] |  | 14–18 kDa |  |
| ELPYPQPEL [33-mer fragment formed in mouse plasma in vitro, MALDI-TOF MS mass match] |  | Filtrate |  |
